Experimental data: patent US20230399373A1, “MOLECULAR DESIGNS OF GLUCOSE-RESPONSIVE AND GLUCOSE-CLEAVABLE INSULIN ANALOGUES” (THE TRUSTEES OF INDIANA UNIVERSITY, priority 2020, published 2023)

Legend:
Format in all cases: cell-based
IR [1] = test: 96-well plate assay of dose-dependent and ligand-selective IR autophosphorylation
Protocol: Quantitative dose-dependent and ligand-selective IR autophosphorylation were evaluated in a 96-well plate assay (FIG. 5A). FRI triggered a robust signal on addition of 50 mM fructose whereas baseline activity in the absence of fructose was low.

IR [2] = test: Western blot assays of fructose-dependent insulin signaling (IR autophosphorylation, p-AKT/AKT, p-FOXO1/FOXO1, p-GSK-3/GSK-3) in HepG2 cells; conditions: single hormone dose 50 nM
Protocol: Signal propagation was probed via a cytoplasmic kinase cascade and changes in metabolic gene expression in HepG2 cells. […] An overview of IR autophosphorylation (probed by anti-pTyr IR antibodies) and downstream phosphorylation of Ser-Thr protein kinase AKT (protein kinase B; ratio p-AKT/AKT), forkhead transcription factor 1 (p-FOXO1/FOXO1), and glycogen synthase kinase-3 (p-GSK-3/GSK-3) at a single hormone dose (50 nM) was provided by Western blot (WB; FIG. 4 D-F). […] The activity of FRI in the absence of fructose is low.

HepG2 cells = test: PCR assays of ligand-selective metabolic gene regulation (PEPCK, ChREBP, SREBP) in HepG2 cells; conditions: control studies
Protocol: Insulin-signaling in hepatocytes extends to metabolic transcriptional regulation as recapitulated in HepG2 cells. […] Control studies were undertaken in the absence of insulin analogs to assess potential confounding changes in metabolic gene expression on addition of 0 to 100 mM fructose or 0 to 100 mM glucose.

With insulin lispro [KP] the “IR autophosphorylation signal on addition of 50 mM fructose” value (IR [1]; 50 mM fructose) was “high signaling activity”, the “effect of addition of 50 mM glucose on IR autophosphorylation activity” value (IR [1]; 50 mM glucose) was “did not influence” and the “IR autophosphorylation baseline activity in the absence of fructose” value (IR [1]; no fructose) was “high signaling activity”. For the same substance, the “signaling by Western blot (IR autophosphorylation, p-AKT/AKT, p-FOXO1/FOXO1, p-GSK-3/GSK-3): dependence on fructose” value (IR [2]) was “fructose-independent signaling” and the “fructose dependence of metabolic gene regulation” value (HepG2 cells) was “No fructose dependence”.
